The source of these data is US11020395B2, “Cycloalkyl substituted triazole compounds as agonists of the APJ receptor” (AMGEN INC., priority 2016, dated 2021).

The target of the test is human APJ receptor (Homo sapiens (Human), UniProt P35414). Briefly: [35S]GTPγS binding assay on membranes from CHO cells stably expressing human APJ receptor. The format is biochemical. The note with it: [35S]GTPγS SPA, read-out: Activity hAPJ SPA EC50 IP. As to the method: [^35S]GTPγS Binding The human APJ receptor was cloned by polymerase chain reaction and the gene encoding the receptor was subcloned in pFLAG-CMV™-3 expression vector (Sigma, Saint Louis, Mo. USA) in-house at Amgen. A GTPγS binding assay was performed on membranes prepared from CHO cells stably expressing human APJ receptor. The optimum experimental conditions for the concentrations of GDP, MgCl2, and NaCl in the assay buffer were initially determined. […] Incubation was at RT for 90 min and the microplate was read using a ViewLux™ ultra HTS Microplate Imager (PerkinElmer, Inc.). All the results presented are means of several independent experiments and analyzed by non-linear regression methods using the commercially available program Prism (GraphPad, San Diego, Calif.) providing the EC50 values detailed in Table 25.
Chain of human APJ receptor (P35414 whole entry): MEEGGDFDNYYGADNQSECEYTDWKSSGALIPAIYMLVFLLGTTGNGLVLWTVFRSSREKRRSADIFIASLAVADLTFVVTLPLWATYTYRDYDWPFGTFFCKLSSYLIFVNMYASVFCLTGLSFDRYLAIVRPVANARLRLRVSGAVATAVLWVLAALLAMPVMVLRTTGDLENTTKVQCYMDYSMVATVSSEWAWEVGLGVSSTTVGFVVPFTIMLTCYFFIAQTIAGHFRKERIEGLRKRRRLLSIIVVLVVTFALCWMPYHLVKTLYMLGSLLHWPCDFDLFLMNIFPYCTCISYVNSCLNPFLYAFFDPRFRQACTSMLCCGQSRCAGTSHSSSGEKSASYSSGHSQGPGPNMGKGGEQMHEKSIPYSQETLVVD
On the technique in general: Binding of GTPγS marks nucleotide exchange on a G protein.
Usually EC50 stands for the concentration needed to bring the measured effect to its halfway point. For `COc1cccc(OC)c1-n1c(NS(=O)(=O)[C@@H](C)[C@H](OC)c2ncc(Cl)cn2)nnc1[C@H]1C[C@H](Cl)C1` (single isomer, unassigned) [Example 154.0, (1R,2S)-1-(5-chloropyrimidin-2-yl)-N-(4-(2,6-dimethoxyphenyl)-5-((1r,3S)-3-chlorocyclobutyl)-4H-1,2,4-triazol-3-yl)-1-methoxypropane-2-sulfonamide or (1R,2S)-1-(5-chloropyrimidin-2-yl)-N-(4-(2,6-dimethoxyphenyl)-5-((1s,3R)-3-chlorocyclobutyl)-4H-1,2,4-triazol-3-yl)-1-methoxypropane-2-sulfonamide], the EC50 was found to be 0.18 nM.
With `COc1cccc(OC)c1-n1c(NS(=O)(=O)[C@@H](C)[C@H](OC)c2ncc(Cl)cn2)nnc1[C@H]1C[C@H](OC)C1` (single isomer, unassigned) [Example 155.0, (1R,2S)-1-(5-chloropyrimidin-2-yl)-N-(4-(2,6-dimethoxyphenyl)-5-((1r,3S)-3-methoxycyclobutyl)-4H-1,2,4-triazol-3-yl)-1-methoxypropane-2-sulfonamide or (1R,2S)-1-(5-chloropyrimidin-2-yl)-N-(4-(2,6-dimethoxyphenyl)-5-((1s,3R)-3-methoxycyclobutyl)-4H-1,2,4-triazol-3-yl)-1-methoxypropane-2-sulfonamide], the EC50 was 9.4 nM.
Then `COc1cccc(OC)c1-n1c(NS(=O)(=O)[C@@H](C)[C@H](OC)c2ncc(Cl)cn2)nnc1[C@H]1C[C@H](OC)C1` (single isomer, unassigned) [Example 156.0, (1R,2S)-1-(5-chloropyrimidin-2-yl)-N-(4-(2,6-dimethoxyphenyl)-5-((1r,3S)-3-methoxycyclobutyl)-4H-1,2,4-triazol-3-yl)-1-methoxypropane-2-sulfonamide or (1R,2S)-1-(5-chloropyrimidin-2-yl)-N-(4-(2,6-dimethoxyphenyl)-5-((1s,3R)-3-methoxycyclobutyl)-4H-1,2,4-triazol-3-yl)-1-methoxypropane-2-sulfonamide], with 11 nM; and `COc1cccc(OC)c1-n1c(NS(=O)(=O)[C@@H](C)[C@H](OC)c2ncc(Cl)cn2)nnc1[C@H]1CCC1(F)F` (single isomer, unassigned) [Example 159.0, (1R,2S)-1-(5-chloropyrimidin-2-yl)-N-(5-((R)-2,2-difluorocyclobutyl)-4-(2,6-dimethoxyphenyl)-4H-1,2,4-triazol-3-yl)-1-methoxypropane-2-sulfonamide or (1R,2S)-1-(5-chloropyrimidin-2-yl)-N-(5-((S)-2,2-difluorocyclobutyl)-4-(2,6-dimethoxyphenyl)-4H-1,2,4-triazol-3-yl)-1-methoxypropane-2-sulfonamide], with 8 nM; and `COc1cccc(OC)c1-n1c(NS(=O)(=O)[C@@H](C)[C@H](OC)c2ncc(Cl)cn2)nnc1[C@H]1CCC1(F)F` (single isomer, unassigned) [Example 160.0, (1R,2S)-1-(5-chloropyrimidin-2-yl)-N-(5-((R)-2,2-difluorocyclobutyl)-4-(2,6-dimethoxyphenyl)-4H-1,2,4-triazol-3-yl)-1-methoxypropane-2-sulfonamide or (1R,2S)-1-(5-chloropyrimidin-2-yl)-N-(5-((S)-2,2-difluorocyclobutyl)-4-(2,6-dimethoxyphenyl)-4H-1,2,4-triazol-3-yl)-1-methoxypropane-2-sulfonamide], with 27 nM.
For `COc1ncnc(OC)c1-n1c(NS(=O)(=O)[C@@H](C)[C@H](OC)c2ncc(Cl)cn2)nnc1[C@H]1C[C@@H](F)C1` (single isomer, unassigned) [Example 162.0, (1R,2S)-1-(5-chloropyrimidin-2-yl)-N-(4-(4,6-dimethoxypyrimidin-5-yl)-5-((1s,3R)-3-fluorocyclobutyl)-4H-1,2,4-triazol-3-yl)-1-methoxypropane-2-sulfonamide or (1R,2S)-1-(5-chloropyrimidin-2-yl)-N-(4-(4,6-dimethoxypyrimidin-5-yl)-5-((1r,3S)-3-fluorocyclobutyl)-4H-1,2,4-triazol-3-yl)-1-methoxypropane-2-sulfonamide], the EC50 was 14 nM.
For `COc1ncnc(OC)c1-n1c(NS(=O)(=O)[C@@H](C)[C@H](OC)c2ncc(Cl)cn2)nnc1[C@H]1C[C@@H](F)C1` (single isomer, unassigned) [Example 163.0, (1R,2S)-1-(5-chloropyrimidin-2-yl)-N-(4-(4,6-dimethoxypyrimidin-5-yl)-5-((1s,3R)-3-fluorocyclobutyl)-4H-1,2,4-triazol-3-yl)-1-methoxypropane-2-sulfonamide or (1R,2S)-1-(5-chloropyrimidin-2-yl)-N-(4-(4,6-dimethoxypyrimidin-5-yl)-5-((1r,3S)-3-fluorocyclobutyl)-4H-1,2,4-triazol-3-yl)-1-methoxypropane-2-sulfonamide], the EC50 came out at 46 nM.
Under `COc1ncnc(OC)c1-n1c(NS(=O)(=O)[C@@H](C)[C@H](OC)c2ncc(Cl)cn2)nnc1[C@H]1C[C@@H](Cl)C1` (single isomer, unassigned) [Example 164.0, (1R,2S)-1-(5-chloropyrimidin-2-yl)-N-(4-(4,6-dimethoxypyrimidin-5-yl)-5-((1s,3R)-3-chlorocyclobutyl)-4H-1,2,4-triazol-3-yl)-1-methoxypropane-2-sulfonamide or (1R,2S)-1-(5-chloropyrimidin-2-yl)-N-(4-(4,6-dimethoxypyrimidin-5-yl)-5-((1r,3S)-3-chlorocyclobutyl)-4H-1,2,4-triazol-3-yl)-1-methoxypropane-2-sulfonamide] stands 0.54 nM.
Turning to `COc1ncnc(OC)c1-n1c(NS(=O)(=O)[C@@H](C)[C@H](OC)c2ncc(Cl)cn2)nnc1[C@H]1C[C@@H](Cl)C1` (single isomer, unassigned) [Example 165.0, (1R,2S)-1-(5-chloropyrimidin-2-yl)-N-(4-(4,6-dimethoxypyrimidin-5-yl)-5-((1s,3R)-3-chlorocyclobutyl)-4H-1,2,4-triazol-3-yl)-1-methoxypropane-2-sulfonamide or (1R,2S)-1-(5-chloropyrimidin-2-yl)-N-(4-(4,6-dimethoxypyrimidin-5-yl)-5-((1r,3S)-3-chlorocyclobutyl)-4H-1,2,4-triazol-3-yl)-1-methoxypropane-2-sulfonamide], the EC50 worked out at 9.7 nM.
Consider `COc1ncnc(OC)c1-n1c(NS(=O)(=O)[C@@H](C)[C@@H](OC(C)C)c2ncc(Cl)cn2)nnc1[C@@H]1CC[C@@H]1C(F)F` (single isomer, unassigned) [Example 167.0, (1S,2S)-1-(5-chloropyrimidin-2-yl)-N-(5-((1R,2S)-2-(difluoromethyl)cyclobutyl)-4-(4,6-dimethoxypyrimidin-5-yl)-4H-1,2,4-triazol-3-yl)-1-isopropoxypropane-2-sulfonamide or (1S,2S)-1-(5-chloropyrimidin-2-yl)-N-(5-((1S,2R)-2-(difluoromethyl)cyclobutyl)-4-(2,6-dimethoxypyrimidin-5-yl)-4H-1,2,4-triazol-3-yl)-1-isopropoxypropane-2-sulfonamide], for which the EC50 is 13 nM.
With `COc1ncnc(OC)c1-n1c(NS(=O)(=O)[C@@H](C)[C@@H](OC(C)C)c2ncc(Cl)cn2)nnc1[C@@H]1CC[C@@H]1C(F)F` (single isomer, unassigned) [Example 168.0, (1S,2S)-1-(5-chloropyrimidin-2-yl)-N-(5-((1R,2S)-2-(difluoromethyl)cyclobutyl)-4-(4,6-dimethoxypyrimidin-5-yl)-4H-1,2,4-triazol-3-yl)-1-isopropylpropane-2-sulfonamide or (1S,2S)-1-(5-chloropyrimidin-2-yl)-N-(5-((1S,2R)-2-(difluoromethyl)cyclobutyl)-4-(4,6-dimethoxypyrimidin-5-yl)-4H-1,2,4-triazol-3-yl)-1-isopropoxypropane-2-sulfonamide], the EC50 stood at 8 nM.
Take `COc1cccc(OC)c1-n1c(NS(=O)(=O)[C@@H](C)[C@H](OC)c2ncc(Cl)cn2)nnc1C1CCC1C#N` (single isomer, unassigned) [Example 169.0, (1R,2S)-1-(5-chloropyrimidin-2-yl)-N-(5-((1R,2S)-2-cyanocyclobutyl)-4-(2,6-dimethoxyphenyl)-4H-1,2,4-triazol-3-yl)-1-methoxypropane-2-sulfonamide or (1R,2S)-1-(5-chloropyrimidin-2-yl)-N-(5-((1S,2R)-2-cyanocyclobutyl)-4-(2,6-dimethoxyphenyl)-4H-1,2,4-triazol-3-yl)-1-methoxypropane-2-sulfonamide]: the EC50 came to 21 nM.
`COc1cccc(OC)c1-n1c(NS(=O)(=O)[C@@H](C)[C@H](OC)c2ncc(Cl)cn2)nnc1C1CCC1C#N` (single isomer, unassigned) [Example 170.0, (1R,2S)-1-(5-chloropyrimidin-2-yl)-N-(5-((1R,2R)-2-cyanocyclobutyl)-4-(2,6-dimethoxyphenyl)-4H-1,2,4-triazol-3-yl)-1-methoxypropane-2-sulfonamide or (1R,2S)-1-(5-chloropyrimidin-2-yl)-N-(5-((1R,2R)-2-cyanocyclobutyl)-4-(2,6-dimethoxyphenyl)-4H-1,2,4-triazol-3-yl)-1-methoxypropane-2-sulfonamide]: the EC50 is 18 nM.
For `COc1ncnc(OC)c1-n1c(NS(=O)(=O)[C@@H](C)[C@H](OC)c2ncc(Cl)cn2)nnc1[C@H]1CC[C@@H](C(F)(F)F)CC1` (single isomer, unassigned) [Example 172.0, (1R,2S)-1-(5-chloropyrimidin-2-yl)-N-(4-(4,6-dimethoxypyrimidin-5-yl)-5-((1s,4R)-4-(trifluoromethyl)cyclohexyl)-4H-1,2,4-triazol-3-yl)-1-methoxypropane-2-sulfonamide or (1R,2S)-1-(5-chloropyrimidin-2-yl)-N-(4-(4,6-dimethoxypyrimidin-5-yl)-5-((1r,4S)-4-(trifluoromethyl)cyclohexyl)-4H-1,2,4-triazol-3-yl)-1-methoxypropane-2-sulfonamide], the EC50 was 370 nM.
